Test results taken from the supplement of paper PMC10307832.

Experiments:
Assay in all cases: relative viability (nuclei count vs DMSO), 5 days (fraction); higher = more cells survive
[1] = compound: CC1=CC(=NN1)NC2=CC(=NC(=N2)/C=C/C3=CC=CC=C3)N4CCN(CC4)C + N=C(N)NC(=N)NCCc1ccccc1 [Phenformin] (partner 250 µM)
Outline: (§1)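 Relative viability was taken as the ratio of nuclei in treated wells to nuclei in vehicle wells. Lung cancer cell lines in 1536-well plates received compounds by pin tool one day after seeding, either one drug alone or a fixed anchor-drug dose plus five library-drug doses (not always all listed) in √10 steps. Nuclei were counted on 4× images after 5 days of treatment, and values are medians of duplicate plates.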

Bortezomib + Trametinib = compound: CC(C)C[C@H](NC(=O)[C@H](Cc1ccccc1)NC(=O)c1cnccn1)B(O)O [Bortezomib] + CC(=O)Nc1cccc(-n2c(=O)n(C3CC3)c(=O)c3c(Nc4ccc(I)cc4F)n(C)c(=O)c(C)c32)c1 [Trametinib] (partner 0.02 µM)
Outline: as §1

[2] = compound: CC1=CC(=NN1)NC2=CC(=NC(=N2)/C=C/C3=CC=CC=C3)N4CCN(CC4)C + Cc1cc(Nc2cc(N3CCN(C)CC3)nc(Sc3ccc(NC(=O)C4CC4)cc3)n2)n[nH]1 [Tozasertib] (partner 0.1 µM)
Outline: as §1

Bortezomib + Phenformin = compound: CC(C)C[C@H](NC(=O)[C@H](Cc1ccccc1)NC(=O)c1cnccn1)B(O)O [Bortezomib] + N=C(N)NC(=N)NCCc1ccccc1 [Phenformin] (partner 250 µM)
Outline: as §1

Cell Line | relative viability ([1]; first compound 0.08 µM) | relative viability ([1]; first compound 0.253 µM) | relative viability ([1]; first compound 0.8 µM) | relative viability ([1]; first compound 2.53 µM) | relative viability ([1]; first compound 8 µM) | relative viability (Bortezomib + Trametinib; first compound 0.0002 µM) | relative viability (Bortezomib + Trametinib; first compound 0.000632 µM) | relative viability (Bortezomib + Trametinib; first compound 0.002 µM) | relative viability (Bortezomib + Trametinib; first compound 0.006325 µM) | relative viability (Bortezomib + Trametinib; first compound 0.02 µM) | relative viability ([2]; first compound 0.08 µM) | relative viability ([2]; first compound 0.253 µM) | relative viability ([2]; first compound 0.8 µM) | relative viability ([2]; first compound 2.53 µM) | relative viability ([2]; first compound 8 µM) | relative viability (Bortezomib + Phenformin; first compound 0.0002 µM) | relative viability (Bortezomib + Phenformin; first compound 0.000632 µM) | relative viability (Bortezomib + Phenformin; first compound 0.002 µM) | relative viability (Bortezomib + Phenformin; first compound 0.006325 µM) | relative viability (Bortezomib + Phenformin; first compound 0.02 µM)
NCI-H2126 | 0.518 | 0.557 | 0.525 | 0.365 | 0.227 | 0.548 | 0.599 | 0.54 | 0.496 | 0.202 | 0.844 | 0.907 | 0.837 | 0.501 | 0.236 | 0.528 | 0.534 | 0.538 | 0.34 | 0.256
NCI-H2170 | 0.44 | 0.388 | 0.382 | 0.32 | 0.204 | 0.892 | 0.921 | 0.972 | 0.229 | 0.142 | 0.72 | 0.656 | 0.699 | 0.38 | 0.164 | 0.43 | 0.419 | 0.462 | 0.326 | 0.208
NCI-H2228 | 0.286 | 0.284 | 0.238 | 0.066 | 0.0616 | 0.469 | 0.505 | 0.32 | 0.123 | 0.0916 | 0.193 | 0.214 | 0.158 | 0.086 | 0.0648 | 0.271 | 0.31 | 0.257 | 0.0882 | 0.0761
NCI-H2342 | 0.523 | 0.597 | 0.565 | 0.604 | 0.245 | 0.869 | 0.965 | 0.815 | 0.924 | 0.386 | 0.527 | 0.503 | 0.438 | 0.376 | 0.324 | 0.653 | 0.508 | 0.574 | 0.714 | 0.566
NCI-H2347 | 0.402 | 0.347 | 0.435 | 0.38 | 0.208 | 0.263 | 0.283 | 0.193 | 0.243 | 0.232 | 0.501 | 0.565 | 0.518 | 0.461 | 0.257 | 0.493 | 0.512 | 0.594 | 0.298 | 0.257
NCI-H2405 | 0.377 | 0.307 | 0.422 | 0.244 | 0.1 | 0.579 | 0.646 | 0.523 | 0.223 | 0.188 | 0.751 | 0.72 | 0.674 | 0.421 | 0.185 | 0.513 | 0.319 | 0.393 | 0.241 | 0.109
NCI-H3122 | 0.385 | 0.384 | 0.415 | 0.285 | 0.138 | 0.215 | 0.276 | 0.222 | 0.232 | 0.124 | 0.373 | 0.408 | 0.408 | 0.33 | 0.231 | 0.391 | 0.368 | 0.404 | 0.121 | 0.105
PC-3 [JPC-3] | 0.456 | 0.475 | 0.498 | 0.472 | 0.437 | 0.639 | 0.756 | 0.41 | 0.252 | 0.202 | 0.886 | 0.899 | 0.839 | 0.74 | 0.461 | 0.495 | 0.485 | 0.472 | 0.24 | 0.175
PC-14 | 0.628 | 0.618 | 0.567 | 0.166 | 0.064 | 0.788 | 0.799 | 0.356 | 0.0475 | 0.0434 | 0.634 | 0.619 | 0.55 | 0.359 | 0.0595 | 0.434 | 0.487 | 0.616 | 0.183 | 0.061
RERF-LC-KJ | 0.417 | 0.457 | 0.372 | 0.256 | 0.245 | 0.868 | 0.863 | 0.823 | 0.395 | 0.199 | 0.545 | 0.437 | 0.306 | 0.197 | 0.2 | 0.377 | 0.42 | 0.415 | 0.337 | 0.272
SK-LU-1 | 0.58 | 0.511 | 0.475 | 0.109 | 0.0429 | 0.505 | 0.436 | 0.43 | 0.202 | 0.173 | 0.347 | 0.313 | 0.304 | 0.156 | 0.0914 | 0.561 | 0.499 | 0.467 | 0.122 | 0.0951
SK-MES-1 | 0.664 | 0.682 | 0.601 | 0.147 | 0.124 | 0.506 | 0.546 | 0.533 | 0.215 | 0.158 | 0.881 | 0.912 | 0.656 | 0.177 | 0.13 | 0.648 | 0.6 | 0.608 | 0.269 | 0.15
SW 900 | 0.467 | 0.529 | 0.6 | 0.172 | 0.0691 | 0.587 | 0.578 | 0.167 | 0.155 | 0.145 | 0.594 | 0.667 | 0.559 | 0.326 | 0.174 | 0.534 | 0.548 | 0.13 | 0.123 | 0.0977
SW 1573 | 0.412 | 0.337 | 0.319 | 0.152 | 0.0862 | 0.55 | 0.612 | 0.291 | 0.074 | 0.0469 | 0.213 | 0.162 | 0.162 | 0.133 | 0.0849 | 0.384 | 0.349 | 0.205 | 0.0918 | 0.0612
UMC-11 | 0.348 | 0.289 | 0.279 | 0.137 | 0.131 | 0.731 | 0.845 | 0.574 | 0.296 | 0.132 | 0.191 | 0.212 | 0.206 | 0.183 | 0.162 | 0.371 | 0.313 | 0.333 | 0.292 | 0.236
